Two compounds from patent publication US20100092534A1, “Combination Local Delivery Using a Stent” (Medtronic Vascular, Inc., priority 2008, published 2010) can be followed below.

Structures are written as SMILES.

The nature of series [1]: Solubility in ethanol (coating solvent). Type of series: physicochemical. From the text:
In the following Example, ethanol is chosen as the solvent of choice. The coating to be applied to the stent is a bioactive agent combination, consisting of a mTOR inhibitor and a glucocorticoid. The mTOR inhibitor is zotarolimus. The glucocorticoid is fluocinolone. […] Persons having ordinary skill in the art of polymer chemistry can easily pair the appropriate solvent system to the polymer-bioactive agent(s) combination and achieve optimum results with no more than routine experimentation.

Series [2] deals with monocyte chemoattractant protein-1 (MCP-1). Put plainly: Relative gene expression of MCP-1 (mRNA) in stented porcine vessels. The note with it: local delivery from a vascular stent; 7 days after stenting; compared to a bare metal stent; measured on mRNA; FIG. 1A. Type of series: in vivo. From the text:
FIG. 1: Relative gene expression of (A) MCP-1 and (B) TF in porcine vessels that were stented with zotarolimus coated stents compared with uncoated stents and stents coated with fluocinolone. The drug doses are indicated in ug/mm^2. FIG. 2: Relative gene expression of MCP-1 in porcine vessels that were stented with stents coated with zotarolimus alone compared to stents coated with zotarolimus combined with fluocinolone or fluocinolone alone. The drug doses are indicated in ug/mm^2. […] Furthermore, following stent placement, MCP-1 levels in plasma increase after several days and are more likely to be elevated at follow-up 6 months later in patients who have restenosis. In one embodiment, a dose titration experiment can be conducted to determine the optimal dosage for combination of zotarolimus (e.g. anti-proliferative drug) and fluocinolone (e.g. anti-inflammatory drug). At an optimal dose zotarolimus can inhibit neointimal hyperplasia via inhibition of smooth muscle cells proliferation, while maintaining low levels of MCP-1 and TF due to the inhibitory effect of fluocinolone. […] The stented vessels can be excised 7 days post stenting and the expression of TF and MCP-1 can be evaluated via real time-PCR using porcine primers and probes, allowing the quantative measurement at transcriptional level.

For another series, the system named is tissue factor (TF). Briefly: Relative gene expression of TF in stented porcine vessels. Type of series: in vivo. Particulars: local delivery from a vascular stent; several days after stenting; FIG. 1B. An excerpt: FIG. 1: Relative gene expression of (A) MCP-1 and (B) TF in porcine vessels that were stented with zotarolimus coated stents compared with uncoated stents and stents coated with fluocinolone. The drug doses are indicated in ug/mm^2. As such, delivery of zotarolimus locally from a vascular stent increases the expression of TF in stented vessels. The increased expression can be seen several days after the stenting procedure was preformed (FIG. 1B). In one embodiment, a dose titration experiment can be conducted to determine the optimal dosage for combination of zotarolimus (e.g. anti-proliferative drug) and fluocinolone (e.g. anti-inflammatory drug). At an optimal dose zotarolimus can inhibit neointimal hyperplasia via inhibition of smooth muscle cells proliferation, while maintaining low levels of MCP-1 and TF due to the inhibitory effect of fluocinolone. The evaluation of MCP-1 and TF can be performed by conducting pre-clinical, porcine study using stents loaded with escalating doses of at least zotarolimus or in combination with escalating dosages of fluocinolone and evaluating the expression of MCP-1 and TF in the vessels stented with these stents. […] The stented vessels can be excised 7 days post stenting and the expression of TF and MCP-1 can be evaluated via real time-PCR using porcine primers and probes, allowing the quantative measurement at transcriptional level.

Take `CC1(C)O[C@@H]2C[C@H]3[C@@H]4C[C@H](F)C5=CC(=O)C=C[C@]5(C)[C@@]4(F)[C@@H](O)C[C@]3(C)[C@]2(C(=O)CO)O1` [fluocinolone]: the solubility in ethanol result in series [1] is recorded as “freely soluble”.

As for `CO[C@H]1C[C@@H]2CC[C@@H](C)[C@@](O)(O2)C(=O)C(=O)N2CCCC[C@H]2C(=O)O[C@H]([C@H](C)C[C@@H]2CC[C@H](n3cnnn3)[C@H](OC)C2)CC(=O)[C@H](C)/C=C(\C)[C@@H](O)[C@@H](OC)C(=O)[C@H](C)C[C@H](C)/C=C/C=C/C=C/1C` [zotarolimus], the solubility in ethanol entry in series [1] was “freely soluble”. In series [2], the “expression of monocyte chemoattractant protein-1 (MCP-1) in stented vessels” value is on record as “increased”. For the same compound, the “expression of TF in stented vessels” value with tissue factor (TF) is given as “increases”.
